Literature values in US20200197494A1, “PEPTIDE COMPOSITIONS AND METHODS OF USE” (Dauntless Pharmaceuticals, priority 2017, published 2020).

Conditions: subcutaneous administration; background statement

SMILES: C[C@@H](O)[C@@H]1NC(=O)[C@H](CCCCN)NC(=O)[C@@H](Cc2c[nH]c3ccccc23)NC(=O)[C@H](Cc2ccccc2)NC(=O)[C@@H](NC(=O)[C@H](N)Cc2ccccc2)CSSC[C@@H](C(=O)N[C@H](CO)[C@@H](C)O)NC1=O [octreotide, D-phenylalanyl-L-cysteinyl-L-phenylalanyl-D-tryptophyl-L-lysyl-L-threonyl-N-[2-hydroxy-1-(hydroxymethyl)propyl]-L-Cysteinamide, cyclic (2→7)-disulfide]
- peptide present in the blood stream (bioavailability): ~100%
